The record followed here is patent publication US20250129069A1, “TRIAZOLO WRN INHIBITORS” (Nimbus Wadjet, Inc., priority 2023, published 2025).

The target of experiment [1] is human Werner helicase (WRN, amino acids 517-1235 with L1074F point mutation) (Homo sapiens (Human), UniProt Q14191, L1074F). In words: WRN (BV08) ADP-Glo assay. The note with it: human WRN (aa 517-1235, L1074F), read-out: ADP-Glo_hWRN_IC50. The format is biochemical. The essentials:
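ADP-Glo luminescence read after 60 min, 25 °C reaction of 0.15 nM WRN (517-1235, L1074F, Sf9-expressed, tag removed) with 0.1 nM DNA duplex and 5 μM ATP, following 15 min compound preincubation; 20 mM Bicine pH 7.5, 1% DMSO. IC50 from 3- or 4-parameter fit of % inhibition.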
In general terms: In ADP-Glo the light output rises with the ADP produced.

Experiment [2] deals with p21 induction in HCT 116 cells. In words: p21 induction in cells (In-Cell Western, p21/GAPDH ratio). The format is cell-based. The note with it: 24 h compound incubation, read-out: p21_EC50. The essentials: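 EC50 values come from nonlinear fits of percent activation, defined by the 800/700 nm p21-to-GAPDH ratio scaled between DMSO (low) and internal WRN inhibitor (high) controls. In-Cell Western read after 24 h compound exposure of HCT 116 cells at 37° C. Duplicate 11-point series, 2-fold steps, usually starting at 10 μM.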

Read-outs that look alike come from different tables or passages of the source.

Sequence of human Werner helicase (WRN, amino acids 517-1235 with L1074F point mutation) (Q14191 other isoform, or with tags, fused parts or gaps L1074F (already in the parent)): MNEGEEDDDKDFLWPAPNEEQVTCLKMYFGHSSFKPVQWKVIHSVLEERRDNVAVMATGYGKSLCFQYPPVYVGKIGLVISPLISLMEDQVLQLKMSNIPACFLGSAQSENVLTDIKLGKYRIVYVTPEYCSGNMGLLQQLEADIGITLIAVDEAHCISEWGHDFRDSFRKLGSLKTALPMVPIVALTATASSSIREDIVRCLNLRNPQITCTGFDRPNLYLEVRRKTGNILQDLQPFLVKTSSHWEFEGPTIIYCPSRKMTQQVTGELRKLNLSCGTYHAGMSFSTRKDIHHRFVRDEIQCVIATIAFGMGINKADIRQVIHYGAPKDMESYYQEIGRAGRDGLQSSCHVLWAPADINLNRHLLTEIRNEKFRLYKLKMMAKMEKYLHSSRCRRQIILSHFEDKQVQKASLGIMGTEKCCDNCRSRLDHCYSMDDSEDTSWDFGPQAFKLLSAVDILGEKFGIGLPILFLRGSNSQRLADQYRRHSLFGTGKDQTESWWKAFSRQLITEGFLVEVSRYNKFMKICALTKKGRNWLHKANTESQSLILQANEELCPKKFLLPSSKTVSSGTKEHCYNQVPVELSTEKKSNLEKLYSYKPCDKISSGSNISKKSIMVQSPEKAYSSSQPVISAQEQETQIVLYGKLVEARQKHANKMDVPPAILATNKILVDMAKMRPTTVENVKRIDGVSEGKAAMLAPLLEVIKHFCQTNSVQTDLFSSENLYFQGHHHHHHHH

On to `CCc1c(N2CCN(C(=O)c3c(O)ccc4ncoc34)[C@H]3CC[C@@H]32)c(=O)c2nn(-c3ccnc(OC)c3)nc2n1CC(=O)NC12CC(C(F)(F)F)(C1)C2` [Compound I-148, 2-{5-ethyl-6-[(1S,6S)-5-(6-hydroxy-1,3-benzoxazole-7-carbonyl)-2,5-diazabicyclo[4.2.0]octan-2-yl]-2-(2-methoxypyridin-4-yl)-7-oxo-2H,4H,7H-[1,2,3]triazolo[4,5-b]pyridin-4-yl}-N-[3-(trifluoromethyl)bicyclo[1.1.1]pentan-1-yl]acetamide], for which the IC50 in experiment [1] is 0.005 to 0.05 µM. In experiment [2] (Homo sapiens), the EC50 was ≤ 0.5 µM.
For the compound `CCc1c(N2CCN(C(=O)c3ncnc(C)c3O)[C@H]3CC[C@@H]32)c(=O)c2nn(-c3ccnc(OC)c3)nc2n1CC(=O)Nc1ccc(C(F)F)cc1Cl` [Compound I-82, N-[2-chloro-4-(difluoromethyl)phenyl]-2-{5-ethyl-6-[(1S,6S)-5-(5-hydroxy-6-methylpyrimidine-4-carbonyl)-2,5-diazabicyclo[4.2.0]octan-2-yl]-2-(2-methoxypyridin-4-yl)-7-oxo-2H,4H,7H-[1,2,3]triazolo[4,5-b]pyridin-4-yl}acetamide], the IC50 in experiment [1] is ≤ 0.005 µM. Further, the EC50 in experiment [2] (Homo sapiens) is ≤ 0.5 µM.
On the same counts, the results for `CCc1c(N2CCN(C(=O)c3nccnc3OC)[C@H]3CC[C@@H]32)c(=O)c2nn(C3=CCOCC3)nc2n1CC(=O)NC12CC(C(C)C)(C1)C2` [Compound I-200, 2-[2-(3,6-dihydro-2H-pyran-4-yl)-5-ethyl-6-[(1S,6S)-5-(3-methoxypyrazine-2-carbonyl)-2,5-diazabicyclo[4.2.0]octan-2-yl]-7-oxo-2H,4H,7H-[1,2,3]triazolo[4,5-b]pyridin-4-yl]-N-[3-(propan-2-yl)bicyclo[1.1.1]pentan-1-yl]acetamide] are 0.005 to 0.05 µM and ≤ 0.5 µM.
For the compound `CCc1c(N2CCN(C(=O)c3ncnc(C)c3O)[C@H]3CC[C@@H]32)c(=O)c2nn(-c3ccccn3)nc2n1CC(=O)NC12CC(C(C)C)(C1)C2` [Compound I-90, 2-{5-ethyl-6-[(1S,6S)-5-(5-hydroxy-6-methylpyrimidine-4-carbonyl)-2,5-diazabicyclo[4.2.0]octan-2-yl]-7-oxo-2-(pyridin-2-yl)-2H,4H,7H-[1,2,3]triazolo[4,5-b]pyridin-4-yl}-N-[3-(propan-2-yl)bicyclo[1.1.1]pentan-1-yl]acetamide], the IC50 in experiment [1] lay in the range of 0.005 to 0.05 µM. Also, in experiment [2], the EC50 is ≤ 0.5 µM.
For `CCc1c(N2CCN(C(=O)c3ncnc(C)c3O)[C@H]3CC[C@@H]32)c(=O)c2nn(-c3ccnc(OC)c3)nc2n1CC(=O)NC1(C)CC2(CCC2)C1` [Compound I-87, 2-{5-ethyl-6-[(1S,6S)-5-(5-hydroxy-6-methylpyrimidine-4-carbonyl)-2,5-diazabicyclo[4.2.0]octan-2-yl]-2-(2-methoxypyridin-4-yl)-7-oxo-2H,4H,7H-[1,2,3]triazolo[4,5-b]pyridin-4-yl}-N-{2-methylspiro[3.3]heptan-2-yl}acetamide], in experiment [1], the IC50 fell in the range of 0.005 to 0.05 µM. Further, in experiment [2] (Homo sapiens), the EC50 is ≤ 0.5 µM.
Consider `CCc1c(N2CCN(C(=O)c3c(OC)ncc(C4CCOC4)c3O)CC2)c(=O)c2nn(-c3ccnc(OC)c3)nc2n1CC(=O)NC12CC(C(C)C)(C1)C2` (stereo not drawn) [Compound I-75, 2-(5-ethyl-6-{4-[4-hydroxy-2-methoxy-5-(oxolan-3-yl)pyridine-3-carbonyl]piperazin-1-yl}-2-(2-methoxypyridin-4-yl)-7-oxo-2H,4H,7H-[1,2,3]triazolo[4,5-b]pyridin-4-yl)-N-[3-(propan-2-yl)bicyclo[1.1.1]pentan-1-yl]acetamide], for which the IC50 in experiment [1] lay within 0.005 to 0.05 µM. In experiment [2] (Homo sapiens), the EC50 was in the range of 0.5 to 2 µM.
As to `CCc1c(N2CCN(C(=O)c3c(OC)ccnc3OC)[C@H]3CC[C@@H]32)c(=O)c2nn(C3=CCOCC3)nc2n1CC(=O)NC12CC(C(C)C)(C1)C2` [Compound I-191, 2-[2-(3,6-dihydro-2H-pyran-4-yl)-6-[(1S,6S)-5-(2,4-dimethoxypyridine-3-carbonyl)-2,5-diazabicyclo[4.2.0]octan-2-yl]-5-ethyl-7-oxo-2H,4H,7H-[1,2,3]triazolo[4,5-b]pyridin-4-yl]-N-[3-(propan-2-yl)bicyclo[1.1.1]pentan-1-yl]acetamide], the IC50 in experiment [1] was in the range of 0.005 to 0.05 µM. The EC50 in experiment [2] (Homo sapiens) was ≤ 0.5 µM.
On the same counts, the results for `CCc1c(N2CCN(C(=O)c3ncnc(C)c3O)CC2)c(=O)c2nn(C3=CCOCC3)nc2n1CC(=O)Nc1ccc(C(F)(F)F)cc1Cl` [Compound I-144, N-[2-chloro-4-(trifluoromethyl)phenyl]-2-[2-(3,6-dihydro-2H-pyran-4-yl)-5-ethyl-6-[4-(5-hydroxy-6-methylpyrimidine-4-carbonyl)piperazin-1-yl]-7-oxo-2H,4H,7H-[1,2,3]triazolo[4,5-b]pyridin-4-yl]acetamide] are 0.005 to 0.05 µM and ≤ 0.5 µM.
With `CCc1c(N2CCN(C(=O)c3ncnc(C)c3O)[C@H]3CC[C@@H]32)c(=O)c2nn(-c3ccccn3)nc2n1CC(=O)NC12CC(C(C)C)(C1)C2` [Compound I-22, 2-(5-ethyl-6-((1S,6S)-5-(5-hydroxy-6-methylpyrimidine-4-carbonyl)-2,5-diazabicyclo[4.2.0]octan-2-yl)-7-oxo-2-(pyridin-2-yl)-2,7-dihydro-4H-[1,2,3]triazolo[4,5-b]pyridin-4-yl)-N-(3-isopropylbicyclo[1.1.1]pentan-1-yl)acetamide], in experiment [1], the IC50 lay within 0.005 to 0.05 µM. The EC50 in experiment [2] (Homo sapiens) was ≤ 0.5 µM.
As for `CCc1c(N2CCN(C(=O)c3ncnc(C)c3O)[C@H]3CC[C@@H]32)c(=O)c2nn(-c3ccnc(OC)c3)nc2n1CC(=O)NC12CC(OC(F)(F)F)(C1)C2` [Compound I-40, 2-{5-ethyl-6-[(1S,6S)-5-(5-hydroxy-6-methylpyrimidine-4-carbonyl)-2,5-diazabicyclo[4.2.0]octan-2-yl]-2-(2-methoxypyridin-4-yl)-7-oxo-2H,4H,7H-[1,2,3]triazolo[4,5-b]pyridin-4-yl}-N-[3-(trifluoromethoxy)bicyclo[1.1.1]pentan-1-yl]acetamide], in experiment [1], the IC50 fell in the range of 0.005 to 0.05 µM. In addition, in experiment [2], the EC50 was ≤ 0.5 µM.
The like results for `CCc1c(N2CCN(C(=O)c3ncnc(C)c3O)[C@H]3CC[C@@H]32)c(=O)c2nn(-c3ccnc(OC)c3)nc2n1CC(=O)NC12CC(C(C)C)(C1)C2` [Compound I-48, 2-{5-ethyl-6-[(1S,6S)-5-(5-hydroxy-6-methylpyrimidine-4-carbonyl)-2,5-diazabicyclo[4.2.0]octan-2-yl]-2-(2-methoxypyridin-4-yl)-7-oxo-2H,4H,7H-[1,2,3]triazolo[4,5-b]pyridin-4-yl}-N-[3-(propan-2-yl)bicyclo[1.1.1]pentan-1-yl]acetamide] were, in that order, 0.005 to 0.05 µM and ≤ 0.5 µM.
`CCc1c(N2CCN(C(=O)c3ncnc(C)c3O)[C@H]3CC[C@@H]32)c(=O)c2nn(-c3cc(C)n(C)n3)nc2n1CC(=O)NC12CC(C(C)C)(C1)C2` [Compound I-35, 2-[2-(1,5-dimethyl-1H-pyrazol-3-yl)-5-ethyl-6-[(1S,6S)-5-(5-hydroxy-6-methylpyrimidine-4-carbonyl)-2,5-diazabicyclo[4.2.0]octan-2-yl]-7-oxo-2H,4H,7H-[1,2,3]triazolo[4,5-b]pyridin-4-yl]-N-[3-(propan-2-yl)bicyclo[1.1.1]pentan-1-yl]acetamide]: the IC50 in experiment [1] was in the range of 0.005 to 0.05 µM. Besides, in experiment [2] (Homo sapiens), the EC50 is ≤ 0.5 µM.
